In patent US20230416265A1, “COMPOUNDS FOR THE DETECTION OF HEME OXYGENASE 1 (HO-1), AND METHODS AND USES INVOLVING THE SAME” (IMPERIAL COLLEGE INNOVATIONS LIMITED, priority 2020, published 2023):
Where “and” joins values, the source holds several entries; their conditions need not be identical. Identical values can stand only once.

What was measured:
[1] = Photophysical studies in PBS buffer pH 7.4; assay type: physicochemical; conditions: PBS buffer pH 7.4, 20 μM, λex = 320 nm, 298 K
[2] = Photophysical studies in chloroform; assay type: physicochemical; conditions: 298 K; for Emission λmax [nm] / E [%] (FRET efficiency): λex = 320 nm; for Ø514 nm [%] (quantum yield): ± 20%, standard H2TPP in toluene (Ø514 nm = 0.11)
Method: UV-Visible absorption spectra were measured using an Agilent Technologies Cary 60 Spectrophotometer operating with VVinUV software. The sample was held in a quartz cuvette with a path length of 1 cm. Absorption spectra were recorded against a baseline of pure solvent in an optically matched cuvette with a scan rate of 600 nm/min and a data interval of 1.0 nm. Emission and excitation spectra were acquired on an Agilent Technologies Carry Eclipse Fluorescence Spectrophotometer, in quartz cuvettes with a path length of 1 cm. Emission and excitation spectra were collected with a scan rate of 120.0 nm/min, a delay interval of 1.0 nm and band-passes of 5 nm. […]
(§1) In the examples highlighted above, the sample concentration was […] in PBS buffer and 10 pM in chloroform. All measurements were performed at 298 K.

[3] = Photophysical studies in PBS buffer pH 7.4; assay type: physicochemical; conditions: for E [%] (FRET efficiency): PBS buffer pH 7.4, 20 μM, 298 K; for Ø514 nm [%] (quantum yield): PBS buffer pH 7.4, 298 K, ± 20%, standard H2TPP in toluene (Ø514 nm = 0.11)
Method: UV-Visible absorption spectra were measured using an Agilent Technologies Cary 60 Spectrophotometer operating with VVinUV software. The sample was held in a quartz cuvette with a path length of 1 cm. Absorption spectra were recorded against a baseline of pure solvent in an optically matched cuvette with a scan rate of 600 nm/min and a data interval of 1.0 nm. Emission and excitation spectra were acquired on an Agilent Technologies Carry Eclipse Fluorescence Spectrophotometer, in quartz cuvettes with a path length of 1 cm. Emission and excitation spectra were collected with a scan rate of 120.0 nm/min, a delay interval of 1.0 nm and band-passes of 5 nm.
Measurements were recorded in aqueous solutions of PBS buffer at pH 7.4 in order to mimic physiological conditions.
as §1

HO-1 = target: T1, HO-1 (Homo sapiens, UniProt P09601); assay: Control experiment: quenching of coumarin 1i fluorescence on addition of HO-1 in E. coli lysates; assay type: biochemical; conditions: λex = 320 nm
T1 construct: made in house; host or cells: E. coli (lysate)
T1 sequence (P09601 1-288): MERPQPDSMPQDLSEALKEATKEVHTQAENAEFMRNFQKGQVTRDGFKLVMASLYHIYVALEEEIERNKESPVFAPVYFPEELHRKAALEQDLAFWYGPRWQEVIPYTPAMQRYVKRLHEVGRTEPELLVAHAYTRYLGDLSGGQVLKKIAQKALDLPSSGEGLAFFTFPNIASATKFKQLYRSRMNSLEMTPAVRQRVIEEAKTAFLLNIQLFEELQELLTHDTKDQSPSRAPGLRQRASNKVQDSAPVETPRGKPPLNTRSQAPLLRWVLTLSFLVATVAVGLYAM

Compound | Emission λmax [nm] [1] | Emission λmax [nm] [2] | E [%] (FRET efficiency) ([3]; λex = 320 nm) | Ø514 nm [%] (quantum yield) [3] | Ø514 nm [%] (quantum yield) [2] | E [%] (FRET efficiency) [2] | decrease in the emission intensity at 384 nm following addition of HO-1 (HO-1) [fold] | porphyrin emission following Fe2+ complexation ([3]; PBS buffer and chloroform, λex = 320 nm)
Cc1cc(=O)oc2cc(OCCBr)ccc12 [Compound 1f] | 384 nm and 383 ^[b] nm | 382 nm |  |  |  |  |  | 
COC(=O)CCC1=C(C)c2cc3[nH]c(c(C)c3C)c(-c3ccc(OCCOc4ccc5c(C)cc(=O)oc5c4)cc3)c3nc(cc4[nH]c(cc1n2)c(CCC(=O)OC)c4C)C(C)=C3C [Compound 1g] | 387 nm | 385 nm and 629 nm and 695 nm | 95.1 | 0.5 | 5.2 | 99.7 |  | 
Cc1cc(=O)oc2cc(OCCOc3ccc(C(=O)O)cc3)ccc12 [Compound 1i, 4-(2-((4-Methyl-2-oxo-2H-chromen-7-yl)oxy)ethoxy)benzoic acid] | 384 nm | 381 nm |  |  |  |  | 2.3 | 
Cc1cc(=O)oc2cc(OCCOc3ccc(-c4c5nc(c(-c6ccccc6)c6ccc([nH]6)c(-c6ccccc6)c6nc(c(-c7ccccc7)c7ccc4[nH]7)C=C6)C=C5)cc3)ccc12 [Compound C3g, reference compound] | 383 nm | 379 nm and 654 nm and 719 nm | 96.8 | 2.0 | 17.4 | 96.6 |  | 
Iron(11) dimethyl 3,3′-(3,7,8,12,13,17-hexamethyl-10-(4-(2-((4-methyl-2-oxo-2H-chromen-7-yl)oxy)ethoxy) phenyl)porp-hyrin-2,18-diyl)dipropionate [Compound 1h] | 387 ^[b], [c] nm | 385^[a], [b] nm | 99.2 |  |  | 98.7 |  | completely quenched
